Laboratory results as given in ChEMBL document CHEMBL1201862, “PubChem BioAssay data set” (2004).
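Following 48 hours of exposure in 96-well plates, responses at five concentrations were used to interpolate endpoints linearly. GI50 = concentration required for 50% inhibition of growth.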 Calls of active or inactive are those of the source. Rule as the data show it: active = GI50 up to about 1.1 µM and inactive = higher.

How the values were obtained:
Assay in all cases: NCI-60 cell line screen, 48 h
SK-OV-3 = system: SK-OV-3
SN12C = system: SN12C
HL-60 = system: HL-60
NCI-H460 = system: NCI-H460
OVCAR-3 = system: OVCAR-3
IGROV-1 = system: IGROV-1
COLO 205 = system: COLO 205
EKVX = system: EKVX
HOP-62 = system: HOP-62
M14 = system: M14
SF-268 = system: SF-268
SNB-19 = system: SNB-19
LOX IMVI = system: LOX IMVI
SK-MEL-28 = system: SK-MEL-28
SK-MEL-2 = system: SK-MEL-2
A498 = system: A498
CCRF-CEM = system: CCRF-CEM
OVCAR-4 = system: OVCAR-4

Measured: GI50

CCOC(C[C@H](O)[C@H]1COC(=S)S1)OCC
inactive: SK-OV-3 > 10 µM | SN12C > 100 µM | HL-60 > 100 µM | NCI-H460 > 100 µM | OVCAR-3 > 100 µM | IGROV-1 > 100 µM | COLO 205 > 100 µM | EKVX > 100 µM | HOP-62 > 100 µM | M14 > 100 µM | SF-268 > 100 µM | SNB-19 > 100 µM | LOX IMVI > 100 µM

CN(c1ccccc1)C1C(=O)N(c2ccccc2)C1/C=C/c1ccccc1 (stereo not drawn)
inactive: SK-OV-3 > 100 µM | SN12C > 100 µM | HL-60 > 100 µM | NCI-H460 > 100 µM | OVCAR-3 > 100 µM | SK-MEL-28 > 100 µM | IGROV-1 > 100 µM | COLO 205 > 100 µM | EKVX > 100 µM | SK-MEL-2 > 100 µM | SF-268 > 100 µM | SNB-19 > 100 µM | A498 5.58 µM | CCRF-CEM > 100 µM

CCOP(=O)(OCC)/C(C#N)=C/c1ccc[nH]1
inactive: SK-OV-3 > 100 µM | SN12C > 100 µM | HL-60 > 100 µM | OVCAR-4 > 100 µM | NCI-H460 > 100 µM | OVCAR-3 > 100 µM | SK-MEL-28 > 100 µM | COLO 205 > 100 µM | HOP-62 > 100 µM | M14 > 100 µM | SK-MEL-2 > 100 µM | SF-268 > 100 µM | SNB-19 > 100 µM | LOX IMVI > 100 µM | CCRF-CEM > 100 µM

COc1cc2ccnc3c(=C(SC)SC)c(=O)c(c1OC)c23
inactive: SK-OV-3 > 100 µM | SN12C 15.2 µM | HL-60 2.26 µM | OVCAR-4 15.8 µM | NCI-H460 35.3 µM | OVCAR-3 14.9 µM | SK-MEL-28 13 µM | IGROV-1 21 µM | COLO 205 3.37 µM | EKVX > 10 µM | HOP-62 > 100 µM | M14 13.9 µM | SK-MEL-2 16.2 µM | SF-268 22.2 µM | SNB-19 53.2 µM | LOX IMVI 2.87 µM | CCRF-CEM 2.86 µM

O=[N+]([O-])c1cc([N+](=O)[O-])c(/C=C/c2ccc(Cl)c(Cl)c2)cc1/C=C/c1ccc(Cl)c(Cl)c1
inactive: SK-OV-3 64.6 µM | SN12C 21.2 µM | HL-60 22.2 µM | OVCAR-4 38.7 µM | NCI-H460 30.4 µM | OVCAR-3 17.5 µM | SK-MEL-28 26.5 µM | IGROV-1 22.9 µM | COLO 205 18.7 µM | EKVX 44.1 µM | M14 23.1 µM | SK-MEL-2 24.4 µM | SF-268 25.8 µM | SNB-19 25.6 µM | LOX IMVI 23.7 µM | A498 > 100 µM | CCRF-CEM 21.7 µM

COc1ccc2nc3cc(Cl)ccc3c(Sc3ccccc3[N+](=O)[O-])c2c1
inactive: SK-OV-3 58.1 µM | SN12C 28.1 µM | OVCAR-4 > 100 µM | NCI-H460 > 100 µM | OVCAR-3 > 100 µM | SK-MEL-28 > 100 µM | IGROV-1 > 100 µM | COLO 205 17.3 µM | EKVX > 100 µM | HOP-62 69 µM | M14 > 100 µM | SK-MEL-2 > 100 µM | SF-268 > 100 µM | SNB-19 > 100 µM | LOX IMVI > 100 µM | A498 > 100 µM | CCRF-CEM > 100 µM

C=C1C(=O)O[C@H]2[C@H]1[C@H](OC(=O)/C(C)=C\C)CC(=C)[C@@H]1[C@H](O)[C@H]3O[C@@]3(C)[C@@]12O [EUPATUNDIN]
inactive: SK-OV-3 > 100 µM | SN12C > 100 µM | OVCAR-4 > 100 µM | NCI-H460 > 100 µM | OVCAR-3 > 100 µM | SK-MEL-28 > 100 µM | IGROV-1 > 100 µM | COLO 205 > 100 µM | EKVX > 100 µM | HOP-62 > 100 µM | M14 > 100 µM | SK-MEL-2 > 100 µM | SF-268 > 100 µM | SNB-19 > 100 µM | LOX IMVI > 100 µM | CCRF-CEM > 100 µM

COC(=O)c1csnn1
inactive: SK-OV-3 > 100 µM | SN12C > 100 µM | HL-60 > 100 µM | NCI-H460 > 100 µM | OVCAR-3 > 100 µM | SK-MEL-28 > 100 µM | IGROV-1 > 100 µM | COLO 205 > 100 µM | EKVX > 100 µM | HOP-62 > 100 µM | M14 > 100 µM | SF-268 > 100 µM | SNB-19 > 100 µM | LOX IMVI > 100 µM | CCRF-CEM > 100 µM

COc1ccc(CC2c3c(cc(OC)c(OC)c3OC)CCN2C)cc1OC (stereo not drawn)
inactive: SN12C > 100 µM | OVCAR-4 78.7 µM | NCI-H460 > 100 µM | OVCAR-3 > 100 µM | SK-MEL-28 > 100 µM | EKVX > 100 µM | HOP-62 > 100 µM | M14 > 100 µM | SK-MEL-2 > 100 µM | SF-268 > 100 µM | SNB-19 > 100 µM | A498 > 100 µM | CCRF-CEM > 100 µM

Cc1cc(C)c(/C=N/NS(=O)(=O)c2ccccc2)c(C)c1
inactive: SK-OV-3 > 100 µM | SN12C 92.3 µM | HL-60 91.6 µM | OVCAR-4 > 100 µM | NCI-H460 59.4 µM | OVCAR-3 47.6 µM | SK-MEL-28 > 100 µM | IGROV-1 > 100 µM | COLO 205 > 100 µM | EKVX 62.7 µM | HOP-62 > 100 µM | M14 > 100 µM | SK-MEL-2 > 100 µM | SF-268 > 100 µM | LOX IMVI > 100 µM | A498 56.1 µM | CCRF-CEM 62.8 µM

COc1cc(=O)oc(/C=C/CO)c1C
inactive: SK-OV-3 > 100 µM | SN12C > 100 µM | HL-60 > 100 µM | OVCAR-4 > 100 µM | OVCAR-3 > 100 µM | SK-MEL-28 > 100 µM | IGROV-1 > 100 µM | COLO 205 > 100 µM | EKVX > 100 µM | HOP-62 > 100 µM | M14 > 100 µM | SF-268 > 100 µM | SNB-19 > 100 µM | LOX IMVI > 100 µM | A498 > 100 µM | CCRF-CEM > 100 µM

CN1C/C(=C\c2ccco2)c2nc(N)nc(-c3ccco3)c2C1
inactive: SK-OV-3 > 100 µM | SN12C > 100 µM | HL-60 52.7 µM | NCI-H460 > 100 µM | OVCAR-3 43.9 µM | SK-MEL-28 > 100 µM | IGROV-1 > 100 µM | COLO 205 > 100 µM | EKVX > 100 µM | HOP-62 > 100 µM | M14 > 100 µM | SK-MEL-2 > 100 µM | SF-268 > 100 µM | SNB-19 > 100 µM | LOX IMVI 60.4 µM | A498 > 100 µM | CCRF-CEM 74.1 µM

C=C[C@@]1(C)CCC2(O)C(CCC3C2(C)CCC[C@@]3(C)COC(=O)CC(=O)OC)C1 (stereo partly drawn)
inactive: SK-OV-3 > 100 µM | SN12C 19.9 µM | HL-60 19.2 µM | OVCAR-4 17.5 µM | NCI-H460 34.3 µM | OVCAR-3 17.3 µM | SK-MEL-28 17 µM | IGROV-1 26.5 µM | HOP-62 18.5 µM | M14 18.1 µM | SF-268 22.5 µM | SNB-19 31.6 µM | LOX IMVI 16.5 µM | CCRF-CEM 32.7 µM

COc1ccc(C2Oc3cc(OC)c(O)c(C)c3[C@H]2C)cc1 (stereo partly drawn)
inactive: SK-OV-3 > 100 µM | HL-60 18.2 µM | OVCAR-4 80.4 µM | NCI-H460 38.2 µM | OVCAR-3 > 100 µM | SK-MEL-28 > 100 µM | IGROV-1 > 100 µM | COLO 205 > 100 µM | EKVX 26.6 µM | HOP-62 > 100 µM | M14 > 100 µM | SK-MEL-2 > 100 µM | SF-268 41.4 µM | SNB-19 26.9 µM | LOX IMVI 40.5 µM | A498 79.4 µM | CCRF-CEM 36.2 µM

N#Cc1ccc(/C=N\N2C(=O)c3ccccc3C2=O)cc1
inactive: SN12C > 100 µM | HL-60 > 100 µM | OVCAR-4 > 100 µM | NCI-H460 > 100 µM | OVCAR-3 > 100 µM | SK-MEL-28 > 100 µM | IGROV-1 > 100 µM | EKVX > 100 µM | HOP-62 > 100 µM | M14 > 100 µM | SK-MEL-2 > 100 µM | SF-268 > 100 µM | SNB-19 > 100 µM | LOX IMVI > 100 µM | A498 > 100 µM | CCRF-CEM > 100 µM

COc1ccc2c(c1)C(=O)c1ccc(OC)cc1C2=S
inactive: SK-OV-3 > 100 µM | SN12C > 100 µM | HL-60 40.1 µM | OVCAR-3 > 100 µM | SK-MEL-28 > 100 µM | IGROV-1 > 100 µM | COLO 205 > 100 µM | EKVX > 100 µM | HOP-62 > 100 µM | M14 > 100 µM | SK-MEL-2 > 100 µM | SF-268 81.5 µM | SNB-19 > 100 µM | LOX IMVI > 100 µM | A498 > 100 µM | CCRF-CEM 25.5 µM

CCc1cccc(C)c1NS(=O)(=O)c1ccccc1
inactive: SK-OV-3 > 100 µM | HL-60 > 100 µM | OVCAR-4 > 100 µM | NCI-H460 > 100 µM | OVCAR-3 > 100 µM | SK-MEL-28 > 100 µM | IGROV-1 > 100 µM | EKVX > 100 µM | HOP-62 > 100 µM | M14 > 100 µM | SK-MEL-2 > 100 µM | A498 > 100 µM | CCRF-CEM > 100 µM

N#Cc1nc(Nc2cccc3ccccc23)sc1N
inactive: SK-OV-3 38 µM | SN12C 14.1 µM | HL-60 20.7 µM | OVCAR-4 57.7 µM | NCI-H460 35 µM | OVCAR-3 44.6 µM | SK-MEL-28 37.9 µM | IGROV-1 45.1 µM | COLO 205 24.6 µM | HOP-62 33.3 µM | M14 39.9 µM | SK-MEL-2 28.5 µM | SF-268 20.4 µM | SNB-19 38.8 µM | LOX IMVI 17.3 µM
